According to ChEMBL document CHEMBL1201862, “PubChem BioAssay data set” (2004):
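Where inhibition never reached the appropriate level, the endpoint shown equals the highest concentration tested. Otherwise, values were interpolated linearly from a five-concentration, 48-hour dose response in 96-well plates. GI50 = concentration required for 50% inhibition of growth.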 Calls of active or inactive are those of the source. Rule as the data show it: active = GI50 up to about 1.1 µM and inactive = higher.

Columns and labels:
Test in all cases: NCI anticancer screen, dose series, 48 h
[1] = test system: BT-549
[2] = test system: 786-0
[3] = test system: DU-145
[4] = test system: EKVX
[5] = test system: NCI-H23
[6] = test system: OVCAR-4
[7] = test system: K562
[8] = test system: SK-OV-3
[9] = test system: SK-MEL-5
[10] = test system: MDA-MB-435
[11] = test system: NCI-H460
[12] = test system: SF-295
[13] = test system: SW-620
[14] = test system: PC-3
[15] = test system: MOLT-4
[16] = test system: SR
[17] = test system: SNB-19
[18] = test system: MDA-MB-231
[19] = test system: NCI/ADR-RES
[20] = test system: OVCAR-3

Measured: GI50

CC[N+]1(C)CCC(O)(c2ccc(C)cc2)C(C(=O)c2ccc(C)cc2)C1 (stereo not given)
inactive: [1] > 100 µM | [2] 20.1 µM | [3] > 100 µM | [4] > 100 µM | [5] > 100 µM | [6] 34.4 µM | [7] 19.6 µM | [8] > 100 µM | [9] > 100 µM | [10] 69.2 µM | [11] > 100 µM | [12] 37.4 µM | [13] 20.6 µM | [14] > 100 µM | [15] 23.6 µM | [16] 16.2 µM | [17] > 100 µM | [18] 26.7 µM | [19] > 100 µM | [20] 21.7 µM

CCOC(=O)c1csc(C(CSCc2ccc(OC)cc2)N2C(=O)c3ccccc3C2=O)n1 (stereo not given)
inactive: [1] > 100 µM | [2] 88.1 µM | [3] > 100 µM | [4] > 100 µM | [5] > 100 µM | [6] > 100 µM | [7] 33.9 µM | [8] > 100 µM | [9] > 100 µM | [10] 54.8 µM | [11] > 100 µM | [12] > 100 µM | [13] 50.2 µM | [14] > 100 µM | [15] 31.5 µM | [16] 26.5 µM | [17] > 100 µM | [18] > 100 µM | [19] > 100 µM | [20] > 100 µM

COc1ccc2c(c1)CCN1CCc3ccccc3CC21 (stereo not given)
inactive: [1] 34 µM | [2] 31.3 µM | [3] 65.2 µM | [4] > 100 µM | [5] 39 µM | [6] > 100 µM | [7] 29 µM | [8] 64.6 µM | [9] 15.1 µM | [10] 26.8 µM | [11] 30.8 µM | [12] 19.2 µM | [13] 45.3 µM | [14] 30 µM | [15] 35 µM | [16] 35.2 µM | [17] 32.9 µM | [18] 52.2 µM | [19] 42.9 µM | [20] 72.4 µM

CCOC(=O)c1cccc(/N=N/c2nc[nH]c2/C=C/C(=O)OC)c1
inactive: [1] 42.6 µM | [2] 7.36 µM | [3] 37.4 µM | [4] 26.5 µM | [5] 36.3 µM | [6] 6.58 µM | [7] 4.06 µM | [8] 44.8 µM | [9] 7.36 µM | [10] 37 µM | [11] 16.5 µM | [12] 12.9 µM | [13] 6.47 µM | [14] 17.8 µM | [15] 3.01 µM | [16] 2.11 µM | [17] 30.5 µM | [18] 4.39 µM | [19] 4.1 µM | [20] 3.15 µM

CCN(CC)CCCC(C)Nc1ccnc2cc3ccccc3cc12 (stereo not given)
inactive: [1] 8.59 µM | [2] 8.41 µM | [3] > 100 µM | [4] 32.2 µM | [5] 14.3 µM | [6] 3.24 µM | [7] 7 µM | [8] 8.05 µM | [9] 19.8 µM | [10] 7.85 µM | [11] 3.57 µM | [12] 5.82 µM | [13] 6.19 µM | [14] 12.9 µM | [15] 4.09 µM | [16] 3.75 µM | [17] 7.53 µM | [18] 8.57 µM | [19] 10.1 µM | [20] 6.05 µM
